Experimental data as given in the supplement of paper PMC10307832.

Key:
Assay in all cases: relative viability (nuclei count vs DMSO), 5 days (fraction); higher = more cells survive
BEN = test system: BEN
Procedure, shortened: (§1)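 One day after seeding in 1536-well plates, lung cancer cell lines were dosed by pin tool. Dosing was either single-drug or a fixed anchor-drug dose plus five library-drug doses (not always all listed) in √10 steps. After 5 days, nuclei were stained in one fix-and-stain step and counted on 4× images, and relative viability is the nuclei count of treated wells over that of vehicle wells, given as the median of duplicate plates.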

EMC-BAC-2 = test system: EMC-BAC-2
Procedure, shortened: as §1

H3255 = test system: H3255
Procedure, shortened: as §1

HOP-62 = test system: HOP-62
Procedure, shortened: as §1

LCLC-97TM1 = test system: LCLC-97TM1
Procedure, shortened: as §1

LXF-289 = test system: LXF-289
Procedure, shortened: as §1

NCI-H1563 = test system: NCI-H1563
Procedure, shortened: as §1

NCI-H1650 = test system: NCI-H1650
Procedure, shortened: as §1

NCI-H1915 = test system: NCI-H1915
Procedure, shortened: as §1

NCI-H1993 = test system: NCI-H1993
Procedure, shortened: as §1

NCI-H2009 = test system: NCI-H2009
Procedure, shortened: as §1

NCI-H2023 = test system: NCI-H2023
Procedure, shortened: as §1

NCI-H2085 = test system: NCI-H2085
Procedure, shortened: as §1

NCI-H2126 = test system: NCI-H2126
Procedure, shortened: as §1

NCI-H2347 = test system: NCI-H2347
Procedure, shortened: as §1

NCI-H322M = test system: NCI-H322M
Procedure, shortened: as §1

NCI-H358 = test system: NCI-H358
Procedure, shortened: as §1

NCI-H647 = test system: NCI-H647
Procedure, shortened: as §1

NCI-H661 = test system: NCI-H661
Procedure, shortened: as §1

NCI-H727 = test system: NCI-H727
Procedure, shortened: as §1

PC-14 = test system: PC-14
Procedure, shortened: as §1

SK-LU-1 = test system: SK-LU-1
Procedure, shortened: as §1

SW 1573 = test system: SW 1573
Procedure, shortened: as §1

`CC(C)Oc1cc(Nc2nc(N[C@@H](C)c3ccc(F)cn3)ncc2Cl)n[nH]1` [AZ23] + CS(=O)(=O)N1CCN(Cc2cc3nc(-c4cccc5[nH]ncc45)nc(N4CCOCC4)c3s2)CC1 [Pictilisib] (partner 1 µM) showed a relative viability (BEN; first compound 0.01 µM) of 0.527, a relative viability (BEN; first compound 0.03162 µM) of 0.639 and a relative viability (BEN; first compound 0.3162 µM) of 0.653. It also gave a relative viability (EMC-BAC-2; first compound 0.01 µM) of 0.535, a relative viability (EMC-BAC-2; first compound 0.03162 µM) of 0.576 and a relative viability (EMC-BAC-2; first compound 0.3162 µM) of 0.51. For the same molecule, the relative viability (H3255; first compound 0.01 µM) was 0.484, the relative viability (H3255; first compound 0.03162 µM) was 0.519 and the relative viability (H3255; first compound 0.3162 µM) was 0.494. The relative viability (HOP-62; first compound 0.01 µM) was 0.635, the relative viability (HOP-62; first compound 0.03162 µM) was 1.11 and the relative viability (HOP-62; first compound 0.3162 µM) was 0.874. The relative viability (LCLC-97TM1; first compound 0.01 µM) was 0.134, the relative viability (LCLC-97TM1; first compound 0.03162 µM) was 0.225 and the relative viability (LCLC-97TM1; first compound 0.3162 µM) was 0.157. It also gave a relative viability (LXF-289; first compound 0.01 µM) of 0.969, a relative viability (LXF-289; first compound 0.03162 µM) of 0.818 and a relative viability (LXF-289; first compound 0.3162 µM) of 0.788. The relative viability (NCI-H1563; first compound 0.01 µM) was 0.682, the relative viability (NCI-H1563; first compound 0.03162 µM) was 0.653 and the relative viability (NCI-H1563; first compound 0.3162 µM) was 0.674. For the same molecule, the relative viability (NCI-H1650; first compound 0.01 µM) was 0.553, the relative viability (NCI-H1650; first compound 0.03162 µM) was 0.585 and the relative viability (NCI-H1650; first compound 0.3162 µM) was 0.514. The relative viability (NCI-H1915; first compound 0.01 µM) was 0.988, the relative viability (NCI-H1915; first compound 0.03162 µM) was 0.979 and the relative viability (NCI-H1915; first compound 0.3162 µM) was 0.945. For the same molecule, the relative viability (NCI-H1993; first compound 0.01 µM) was 0.755, the relative viability (NCI-H1993; first compound 0.3162 µM) was 0.869 and the relative viability (NCI-H2009; first compound 0.01 µM) was 0.943. For the same molecule, the relative viability (NCI-H2009; first compound 0.03162 µM) was 0.88, the relative viability (NCI-H2009; first compound 0.3162 µM) was 0.854 and the relative viability (NCI-H2023; first compound 0.03162 µM) was 0.248. The relative viability (NCI-H2023; first compound 0.3162 µM) was 0.192, the relative viability (NCI-H2085; first compound 0.01 µM) was 0.556 and the relative viability (NCI-H2085; first compound 0.03162 µM) was 0.563. It also gave a relative viability (NCI-H2085; first compound 0.3162 µM) of 0.446, a relative viability (NCI-H2126; first compound 0.01 µM) of 0.485 and a relative viability (NCI-H2126; first compound 0.03162 µM) of 0.514. It also gave a relative viability (NCI-H2126; first compound 0.3162 µM) of 0.452, a relative viability (NCI-H2347; first compound 0.01 µM) of 0.525 and a relative viability (NCI-H2347; first compound 0.03162 µM) of 0.681. It also gave a relative viability (NCI-H2347; first compound 0.3162 µM) of 0.543, a relative viability (NCI-H322M; first compound 0.01 µM) of 0.477 and a relative viability (NCI-H322M; first compound 0.03162 µM) of 0.497. The relative viability (NCI-H322M; first compound 0.3162 µM) was 0.561, the relative viability (NCI-H358; first compound 0.01 µM) was 0.404 and the relative viability (NCI-H358; first compound 0.03162 µM) was 0.329. For the same molecule, the relative viability (NCI-H358; first compound 0.3162 µM) was 0.324, the relative viability (NCI-H647; first compound 0.03162 µM) was 0.5 and the relative viability (NCI-H647; first compound 0.3162 µM) was 0.447. The relative viability (NCI-H661; first compound 0.01 µM) was 0.402, the relative viability (NCI-H661; first compound 0.03162 µM) was 0.446 and the relative viability (NCI-H661; first compound 0.3162 µM) was 0.423. It also gave a relative viability (NCI-H727; first compound 0.01 µM) of 0.268, a relative viability (NCI-H727; first compound 0.03162 µM) of 0.422 and a relative viability (NCI-H727; first compound 0.3162 µM) of 0.329. The relative viability (PC-14; first compound 0.01 µM) was 0.757, the relative viability (PC-14; first compound 0.03162 µM) was 0.689 and the relative viability (PC-14; first compound 0.3162 µM) was 0.739. It also gave a relative viability (SK-LU-1; first compound 0.01 µM) of 0.408, a relative viability (SK-LU-1; first compound 0.03162 µM) of 0.599 and a relative viability (SK-LU-1; first compound 0.3162 µM) of 0.553. The relative viability (SW 1573; first compound 0.01 µM) was 0.674, the relative viability (SW 1573; first compound 0.03162 µM) was 0.606 and the relative viability (SW 1573; first compound 0.3162 µM) was 0.455.
